Patent publication US12415786B2, “Substituted 2-heteroarylaminobenzenes and the salts thereof and their use as herbicidal agents” (Bayer Aktiengesellschaft, priority 2019, dated 2025)

Tests used:
Format in all cases: in vivo
[1] = system: Setaria viridis; test: Herbicidal pre-emergence action (greenhouse pots), SETVI; settings: 1280 g/ha, visual scoring after about 3 weeks vs untreated controls
Method in brief: (§1)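 Sandy loam, seeds covered with soil; WP or EC formulation sprayed on soil surface, 600 L/ha water + 0.5% additive; rate 1280 g/ha; greenhouse ~3 wk; visual % effect vs untreated control.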

[2] = system: Poa annua; test: Herbicidal pre-emergence action (greenhouse pots), POAAN; settings: 1280 g/ha, visual scoring after about 3 weeks vs untreated controls
Method in brief: as §1

[3] = system: Echinochloa crus-galli; test: Herbicidal post-emergence action (greenhouse pots), ECHCG; settings: 1280 g/ha, rated after about 3 weeks, 100% = plants have died, 0% = like untreated control plants
Method in brief: (§2)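 Weeds were sown in sandy loam and treated at the one-leaf stage, 2–3 weeks after sowing. WP or EC formulations were applied with 0.5% additive at 600 L/ha water, at a rate of 1280 g/ha. Activity was rated visually after about 3 weeks against untreated controls (0% = untreated, 100% = dead).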

[4] = system: Agrostis tenuis; test: Herbicidal early post-emergence action (96-well microtiter plates), AGSTE; settings: 1900 g/ha, scored 9 to 12 days after treatment, 100% = plants have died, 0% = like untreated control plants
Method in brief: (§3)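 Weed seeds grown in quartz sand in 96-well microtiter plates in a climate chamber and treated at the cotyledon stage, 5 to 7 days after sowing, with EC formulations at 2200 L/ha water and a rate equivalent to 1900 g/ha. Visual scoring after 9 to 12 days against untreated controls (0% = control, 100% = dead).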

[5] = system: Echinochloa crus-galli; test: Herbicidal pre-emergence action (greenhouse pots), ECHCG; settings: 1280 g/ha, visual scoring after about 3 weeks vs untreated controls
Method in brief: as §1

[6] = system: Setaria viridis; test: Herbicidal post-emergence action (greenhouse pots), SETVI; settings: 1280 g/ha, rated after about 3 weeks, 100% = plants have died, 0% = like untreated control plants
Method in brief: as §2

[7] = system: Lolium rigidum; test: Herbicidal post-emergence action (greenhouse pots), LOLRI; settings: 1280 g/ha, rated after about 3 weeks, 100% = plants have died, 0% = like untreated control plants
Source text: (§4) In the examples and tables below, the following abbreviations are used: • Undesired Plants/Weeds: • ABUTH: Abutilon theophrasti • AGSTE: Agrostis tenuis • AMARE Amaranthus retroflexus • ECHCG: Echinochloa crus-galli • LOLRI: Lolium rigidum • MATIN: Matricaria inodora • POAAN: Poa annua • SETVI: Setaria viridis • STEME: Stellaria media A. Herbicidal Early Post-Emergence Action Seeds of mono- and dicotyledonous weed plants were placed in plastic pots in sandy loam soil (doubly sown with in each case one species of mono- or dicotyledonous weed plants per pot), covered with soil and cultivated in a greenhouse under controlled growth conditions. 2 to 3 weeks after sowing, the test plants were treated at the one-leaf stage. The compounds of the invention, formulated in the form of wettable powders (WP) or as emulsion concentrates (EC), were applied onto the green parts of the plants as aqueous suspension or emulsion with addition of 0.5% additive at a water application rate of 600 liters per hectare (converted). After the test plants had been kept in the greenhouse under optimum growth conditions for about 3 weeks, the activity of the preparations was rated visually in comparison to untreated controls. For example, 100% activity=the plants have died, 0% activity=like untreated control plants. Tables B1-B8 below show the effects of selected compounds of the general formula (I) according to Table 1 above on various harmful plants and an application rate corresponding to 1280 g/ha, which were obtained by the experimental procedure mentioned above.

[8] = system: Amaranthus retroflexus; test: Herbicidal pre-emergence action (greenhouse pots), AMARE; settings: 1280 g/ha, visual scoring after about 3 weeks vs untreated controls
Method in brief: as §1

[9] = system: Matricaria inodora; test: Herbicidal pre-emergence action (greenhouse pots), MATIN; settings: 1280 g/ha, visual scoring after about 3 weeks vs untreated controls
Method in brief: as §1

[10] = system: Stellaria media; test: Herbicidal post-emergence action (greenhouse pots), STEME; settings: 1280 g/ha, visual rating about 3 weeks after treatment vs untreated controls
Method in brief: as §2

[11] = system: Abutilon theophrasti; test: Herbicidal post-emergence action (greenhouse pots), ABUTH; settings: 1280 g/ha, visual rating about 3 weeks after treatment vs untreated controls
Method in brief: as §2

[12] = system: Poa annua; test: Herbicidal post-emergence action (greenhouse pots), POAAN; settings: 1280 g/ha, visual rating about 3 weeks after treatment vs untreated controls
Method in brief: as §2

[13] = system: Poa annua; test: Herbicidal early post-emergence action (96-well microtiter plates), POAAN; settings: 1900 g/ha, scored 9 to 12 days after treatment, 100% = plants have died, 0% = like untreated control plants
Method in brief: as §3

[14] = system: Matricaria inodora; test: Herbicidal post-emergence action (greenhouse pots), MATIN; settings: 1280 g/ha, visual rating about 3 weeks after treatment vs untreated controls
Source text: as §4

[15] = system: Stellaria media; test: Herbicidal pre-emergence action (greenhouse pots), STEME; settings: 1280 g/ha, visual scoring after about 3 weeks vs untreated controls
Method in brief: as §1

[16] = system: Amaranthus retroflexus; test: Herbicidal post-emergence action (greenhouse pots), AMARE; settings: 1280 g/ha, visual rating about 3 weeks after treatment vs untreated controls
Method in brief: as §2

[17] = system: Lolium rigidum; test: Herbicidal pre-emergence action (greenhouse pots), LOLRI; settings: 1280 g/ha, visual scoring after about 3 weeks vs untreated controls
Source text: (§5) In the examples and tables below, the following abbreviations are used: • Undesired Plants/Weeds: • ABUTH: Abutilon theophrasti • AGSTE: Agrostis tenuis • AMARE Amaranthus retroflexus • ECHCG: Echinochloa crus-galli • LOLRI: Lolium rigidum • MATIN: Matricaria inodora • POAAN: Poa annua • SETVI: Setaria viridis • STEME: Stellaria media A. Herbicidal Early Post-Emergence Action Seeds of mono- and dicotyledonous weed plants were placed in plastic pots in sandy loam soil (doubly sown with one species each of mono- or dicotyledonous weed plants per pot) and covered with soil. The compounds of the invention, formulated in the form of wettable powders (WP) or as emulsion concentrates (EC), were then applied onto the surface of the covering soil as aqueous suspension or emulsion with addition of 0.5% additive at a water application rate of 600 liters per hectare (converted). After the treatment, the pots were placed in a greenhouse and kept under good growth conditions for the test plants. After about 3 weeks, the effect of the preparations was scored visually in comparison with untreated controls as percentages. For example, 100% activity=the plants have died, 0% activity=like untreated control plants. Tables C1-C8 below show the effects of selected compounds of the general formula (I) according to Table 1 above on various harmful plants and an application rate corresponding to 1280 g/ha, which were obtained by the experimental procedure mentioned above.

[18] = system: Abutilon theophrasti; test: Herbicidal pre-emergence action (greenhouse pots), ABUTH; settings: 1280 g/ha, visual scoring after about 3 weeks vs untreated controls
Source text: as §5

Fc1ccc(Oc2c(F)cccc2Nc2ncc(Cl)cn2)cc1 [Example 1-204]
herbicidal activity SETVI [1]: 100%
herbicidal activity POAAN [2]: 100%
ECHCG (herbicidal activity, rated visually in comparison to untreated controls) [3]: 100%
AGSTE (herbicidal activity, scored visually in comparison to untreated controls) [4]: 100%
herbicidal activity ECHCG [5]: 100%
SETVI (herbicidal activity, rated visually in comparison to untreated controls) [6]: 100%
LOLRI (herbicidal activity, rated visually in comparison to untreated controls) [7]: 90%
herbicidal activity AMARE [8]: 100%
herbicidal activity MATIN [9]: 90%
herbicidal activity STEME [10]: 100%
herbicidal activity ABUTH [11]: 100%
herbicidal activity POAAN [12]: 100%
POAAN (herbicidal activity, scored visually in comparison to untreated controls) [13]: 100%

Fc1ccc(Oc2c(Cl)cccc2Nc2ncc(Cl)cn2)cc1 [Example 1-235]
herbicidal activity SETVI [1]: 100%
herbicidal activity POAAN [2]: 100%
ECHCG (herbicidal activity, rated visually in comparison to untreated controls) [3]: 100%
herbicidal activity MATIN [14]: 80%
AGSTE (herbicidal activity, scored visually in comparison to untreated controls) [4]: 100%
herbicidal activity ECHCG [5]: 90%
herbicidal activity STEME [15]: 100%
herbicidal activity AMARE [8]: 100%
herbicidal activity MATIN [9]: 100%
herbicidal activity STEME [10]: 100%
herbicidal activity ABUTH [11]: 100%
herbicidal activity POAAN [12]: 100%
POAAN (herbicidal activity, scored visually in comparison to untreated controls) [13]: 100%
herbicidal activity AMARE [16]: 100%

N#Cc1cccc(Nc2ncc(F)cn2)c1Oc1ccc(F)cc1 [Example 1-267]
herbicidal activity SETVI [1]: 100%
herbicidal activity LOLRI [17]: 100%
herbicidal activity ABUTH [18]: 100%
herbicidal activity POAAN [2]: 100%
ECHCG (herbicidal activity, rated visually in comparison to untreated controls) [3]: 100%
AGSTE (herbicidal activity, scored visually in comparison to untreated controls) [4]: 100%
herbicidal activity ECHCG [5]: 100%
LOLRI (herbicidal activity, rated visually in comparison to untreated controls) [7]: 90%
herbicidal activity STEME [15]: 100%
herbicidal activity AMARE [8]: 100%
herbicidal activity MATIN [9]: 100%
herbicidal activity STEME [10]: 100%
herbicidal activity ABUTH [11]: 100%
herbicidal activity POAAN [12]: 100%
POAAN (herbicidal activity, scored visually in comparison to untreated controls) [13]: 100%
herbicidal activity AMARE [16]: 100%

N#Cc1cccc(Nc2ncc(F)cn2)c1Oc1ccc(F)c(F)c1 [Example 1-272]
herbicidal activity SETVI [1]: 100%
herbicidal activity LOLRI [17]: 100%
herbicidal activity ABUTH [18]: 100%
herbicidal activity POAAN [2]: 100%
ECHCG (herbicidal activity, rated visually in comparison to untreated controls) [3]: 100%
herbicidal activity MATIN [14]: 100%
AGSTE (herbicidal activity, scored visually in comparison to untreated controls) [4]: 100%
herbicidal activity ECHCG [5]: 100%
SETVI (herbicidal activity, rated visually in comparison to untreated controls) [6]: 100%
LOLRI (herbicidal activity, rated visually in comparison to untreated controls) [7]: 100%
herbicidal activity STEME [15]: 100%
herbicidal activity AMARE [8]: 100%
herbicidal activity MATIN [9]: 100%
herbicidal activity STEME [10]: 100%
herbicidal activity ABUTH [11]: 100%
herbicidal activity POAAN [12]: 100%
POAAN (herbicidal activity, scored visually in comparison to untreated controls) [13]: 100%
herbicidal activity AMARE [16]: 100%
